According to patent US4500520A, “Antiinflammatory and/or analgesic silylfurans” (E. I. Du Pont de Nemours and Company, priority 1983, dated 1985):
Like-named read-outs stand apart in the source and are kept apart here.

Assays:
[1] = system: adjuvant-induced arthritis (paw volume, uninjected left hind paw); assay: Established adjuvant-induced arthritis in rats; assay type: in vivo, rat (male Charles River Lewis); conditions: for Adjuvant Arthritis, percent reduction in paw volume at the indicated dose: at 27 mg/kg; for ED50: Rattus norvegicus, read-out: Adjuvant Arthritis ED50
[2] = system: phenylquinone-induced writhing; assay: Phenylquinone writhing test; assay type: in vivo, mouse (female white); conditions: Mus musculus, read-out: Phenylquinone Writhing (PQW) ED50
Experimental: PHENYLQUINONE WRITHING TEST
A standard procedure for detecting and comparing the analgesic activity of compounds in this series for which there is a good correlation with human efficacy is the standard phenylquinone writhing test modified from Siegmund, et al., Proc. Soc. Exp. Biol. Med., 95, 729 (1957). A test compound suspended in 1% methylcellulose was given orally to fasted (17-21 hours) female white mice, 5-20 animals per double blind test. Aqueous (0.01% phenyl-p-benzoquinone) phenylquinone, 0.20 ml per mouse, was injected intraperitoneally 6 minutes before observations were begun. […] The effective analgesic dose for 50% of the mice (ED50) was calculated by the moving average method of Thompson, W. R., Bact. Rev., 11, 115-145 (1947); the time of peak activity was determined for many of the compounds. Data for some of the compounds are summarized in Table II together with data for some standard analgetic-antiinflammatory drugs.

[3] = oral, 7 daily doses, rats, effective dose for 50% decrease from control paw volume, read from dose-response line by inspection
[4] = oral, mice, effective analgesic dose for 50% of the mice, moving average method

SMILES	Adjuvant Arthritis, percent reduction in paw volume at the indicated dose ([1]; oral, 7 daily doses, rats)	ED50 ([2]; po)	ED50 [1, 3]	ED50 [2, 4]	ED50 ([1]; po)
C[Si](C)(C)c1cc(-c2ccccc2)c(-c2ccccc2)o1 [Example 3, 4,5-Diphenyl-2-trimethylsilylfuran]	24%	94 mg/kg	–	–	–
Cc1ccc(-c2cc([Si](C)(C)C)oc2-c2ccc(Cl)cc2)cc1 [Example 5, 5-(4-Chlorophenyl)-4-(4-methylphenyl)-2-trimethylsilylfuran]	15%	> 135 mg/kg	–	–	–
CC(C)Cc1ccc(C(C)C(=O)O)cc1 (stereo not drawn) [Ibuprofen, reference compound]	–	–	100 mg/kg	10 mg/kg	–
COc1ccc(-c2cc([Si](C)(C)C)oc2-c2ccc(OC)cc2)cc1 [Example 2, 4,5-bis(4-Methoxyphenyl)-2-trimethylsilylfuran]	–	2.3 mg/kg	–	–	2.5 mg/kg
CSc1ccc(-c2cc([Si](C)(C)C)oc2-c2ccc(F)cc2)cc1 [Example 4, 5-(4-Fluorophenyl)-4-(4-methylthiophenyl)-2-trimethylsilylfuran]	–	> 135 mg/kg	–	–	> 27 mg/kg
C[Si](C)(C)c1cc(-c2ccc(F)cc2)c(-c2ccc(F)cc2)o1 [Example 1, 4,5-bis(4-Fluorophenyl)-2-trimethylsilylfuran]	32%	39 mg/kg	–	–	–
CCCCC1C(=O)N(c2ccccc2)N(c2ccccc2)C1=O [Phenylbutazone, reference compound]	–	–	10 mg/kg	80 mg/kg	–
COc1ccc2c(c1)c(CC(=O)O)c(C)n2C(=O)c1ccc(Cl)cc1 [Indomethacin, reference compound]	–	0.35 mg/kg	–	–	0.3 mg/kg
CC(=O)Oc1ccccc1C(=O)O [Aspirin, reference compound]	–	135 mg/kg	–	–	305 mg/kg
